# Measurements as given in patent US20210107874A1, “PHARMACEUTICAL FORMULATION OF CROTONYLAMINOPYRIDINE SALT” (priority 2017, published 2021).
# Assay: Visual solubility test of compound 5 in aqueous acid solution
# Assay type: physicochemical
# Method: A visual solubility test (100 μL) at a series of target concentrations of 50, 100 or 200 mg/mL of compound 5 in aqueous acid solution was performed.
# In a 96 well plate (400-600 μL), compound 5 was dispensed (5, 10, or 20 mg per well), acid was added (100 μl of a 350 mM solution in water to each well) and the mixtures were equilibrated at 25° C. with stirring. Solubility was checked by visual inspection after 30 min and after one day.
# [1] = Acetic Acid 350 mM in water, 25° C.
# [2] = Ethanesulfonic Acid 350 mM in water
# [3] = Glucuronic Acid 350 mM in water
# [4] = Glutamic Acid 350 mM in water, 25° C.
# [5] = Methanesulfonic Acid 350 mM in water
# [6] = Methanesulfonic Acid 350 mM in water, 25° C.
# [7] = Nicotinic Acid 350 mM in water, 25° C.
# [8] = Oxoglutaric Acid 350 mM in water
# [9] = lsethionic Acid 350 mM in water
# [10] = lsethionic Acid 350 mM in water, 25° C.
smiles,measurement,setting,value
COc1cc(NCCNC(=O)/C=C/C(C)(F)F)ccn1 [Compound 5],pH for 50 mg/mL,Acetic Acid 350 mM in water,5.09
same,pH for 100 mg/mL,Acetic Acid 350 mM in water,5.02
same,pH for 200 mg/mL,Acetic Acid 350 mM in water,5.06
same,Range at 1 Day,[1],<58 mg/mL
same,Range at 30 mins.,[1],<58 mg/mL
same,pH for 50 mg/mL,Benzoic Acid 350 mM in water,4.94
same,pH for 100 mg/mL,Benzoic Acid 350 mM in water,5.23
same,pH for 200 mg/mL,Benzoic Acid 350 mM in water,5.20
same,pH for 50 mg/mL,Citric Acid 350 mM in water,3.36
same,pH for 100 mg/mL,Citric Acid 350 mM in water,4.06
same,pH for 200 mg/mL,Citric Acid 350 mM in water,4.84
same,pH for 50 mg/mL,[2],0.96
same,pH for 100 mg/mL,[2],1.17
same,pH for 200 mg/mL,[2],4.99
same,pH for 50 mg/mL,Fumaric Acid 350 mM in water,3.59
same,pH for 100 mg/mL,Fumaric Acid 350 mM in water,3.89
same,pH for 200 mg/mL,Fumaric Acid 350 mM in water,4.86
same,pH for 50 mg/mL,[3],3.60
same,pH for 100 mg/mL,[3],4.86
same,pH for 200 mg/mL,[3],4.80
same,pH for 50 mg/mL,Glutamic Acid 350 mM in water,5.11
same,pH for 100 mg/mL,Glutamic Acid 350 mM in water,5.05
same,pH for 200 mg/mL,Glutamic Acid 350 mM in water,5.14
same,Range at 1 Day,[4],<53 mg/mL
same,Range at 30 mins.,[4],<53 mg/mL
same,pH for 50 mg/mL,Lactic Acid 350 mM in water,4.50
same,pH for 100 mg/mL,Lactic Acid 350 mM in water,4.88
same,pH for 200 mg/mL,Lactic Acid 350 mM in water,4.94
same,pH for 50 mg/mL,Malic Acid 350 mM in water,3.68
same,pH for 100 mg/mL,Malic Acid 350 mM in water,4.45
same,pH for 200 mg/mL,Malic Acid 350 mM in water,4.78
same,pH for 50 mg/mL,[5],7.60
same,pH for 100 mg/mL,[5],7.61
same,pH for 200 mg/mL,[5],7.31
same,Range at 1 Day,[6],<52 mg/mL
same,Range at 30 mins.,[6],<52 mg/mL
same,pH for 50 mg/mL,Nicotinic Acid 350 mM in water,"5,25"
same,pH for 100 mg/mL,Nicotinic Acid 350 mM in water,5.15
same,pH for 200 mg/mL,Nicotinic Acid 350 mM in water,5.16
same,Range at 1 Day,[7],<74 mg/mL
same,Range at 30 mins.,[7],<74 mg/mL
same,pH for 50 mg/mL,Oxalic Acid 350 mM in water,1.81
same,pH for 100 mg/mL,Oxalic Acid 350 mM in water,3.27
same,pH for 200 mg/mL,Oxalic Acid 350 mM in water,4.81
same,pH for 50 mg/mL,[8],2.66
same,pH for 100 mg/mL,[8],4.17
same,pH for 200 mg/mL,[8],4.89
same,pH for 50 mg/mL,Succinic Acid 350 mM in water,4.57
same,pH for 100 mg/mL,Succinic Acid 350 mM in water,5.01
same,pH for 200 mg/mL,Succinic Acid 350 mM in water,4.99
same,pH for 50 mg/mL,Tartaric Acid 350 mM in water,2.92
same,pH for 100 mg/mL,Tartaric Acid 350 mM in water,3.71
same,pH for 200 mg/mL,Tartaric Acid 350 mM in water,4.70
same,solubility at 30 min,"aqueous acid solution, aqueous buffer, thermodynamic from solid, Benzoic Acid 350 mM in water, 25° C., read-out: Range at 30 mins.",< 49 mg/mL
same,pH for 50 mg/mL,[9],7.83
same,pH for 100 mg/mL,[9],7.85
same,pH for 200 mg/mL,[9],7.93
same,Range at 1 Day,[10],<52 mg/mL
same,Range at 30 mins.,[10],<52 mg/mL
same,solubility (in words),"with nicotinic acid, methanesulfonic acid, isethionic acid, benzoic acid, acetic acid and glutamic acid",poor solubility
same,solubility (in words),"with tartaric acid, fumaric acid, citric acid, malic acid, oxalic acid, oxoglutaric acid and ethanesulfonic acid",good solubility
